Among the data in PubChem BioAssay AID643 (Vanderbilt High Throughput Screening Facility, 2007) are response slope values, retold here.

SMILES strings stand for the structures. Calls of active or inactive are those of the source. The rule behind the calls is not given here.

This assay has as its target Muscarinic acetylcholine receptor M4 (Mus musculus) (UniProt P32211). In words: M4 muscarinic receptor activation by allosteric ligands – cell-based, confirmation (AID 643). The following applies: HEK293 cells expressing M4, thallium flux fluorescence, 2 min; stronger effect = higher value.

Chain of Muscarinic acetylcholine receptor M4 (Mus musculus) (P32211 whole entry, looked up): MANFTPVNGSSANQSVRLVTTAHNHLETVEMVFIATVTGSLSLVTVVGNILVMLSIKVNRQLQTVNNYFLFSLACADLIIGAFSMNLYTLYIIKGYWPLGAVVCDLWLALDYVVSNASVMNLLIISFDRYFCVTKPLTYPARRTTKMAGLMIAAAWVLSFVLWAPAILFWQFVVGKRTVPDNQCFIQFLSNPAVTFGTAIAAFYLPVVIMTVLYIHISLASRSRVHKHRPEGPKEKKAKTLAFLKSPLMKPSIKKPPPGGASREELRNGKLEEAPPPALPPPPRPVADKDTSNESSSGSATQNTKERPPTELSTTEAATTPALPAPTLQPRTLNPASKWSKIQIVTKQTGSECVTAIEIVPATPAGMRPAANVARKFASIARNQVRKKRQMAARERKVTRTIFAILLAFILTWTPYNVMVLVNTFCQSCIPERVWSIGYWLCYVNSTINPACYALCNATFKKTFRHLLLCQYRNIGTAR

Turning to `Cc1c(C#N)sc2nc(-c3ccccc3)nc(N3CCCC3)c12`, the response slope was 0.0119.
With `CN(C)C(CNC(=O)Nc1cccc(Cl)c1)c1cccnc1` (stereo not given) the figure was 0.00144 (inactive); with `CCOc1ccc(-n2c(O)c(C=Nc3ccc(N(CC)CC)cc3)c(=O)[nH]c2=O)cc1`, -0.00673 (inactive).
With `CCCCNC(=O)Nc1ccnn1C1CCCCC1` the figure was 0.00873; with `COc1ccc(CCn2c(=N)c(C(=O)NCc3ccco3)cc3c(=O)n4ccccc4nc32)cc1`, 0.000825 (inactive); with `O=c1c2ccccc2nc(-c2cccc(Cl)c2)n1O`, 0.00746.
For `Cc1ccc(CNC(=O)c2cc3c(=O)n4ccccc4nc3n(CC3CCCO3)c2=N)cc1` (stereo not given), the response slope is 0.00307 (inactive).
On to `CNS(=O)(=O)c1cccc(C(=O)OCC(=O)c2cc(C)n(-c3ccc4c(c3)OCO4)c2C)c1`, for which the response slope is 0.00508 (inactive).
With `N#Cc1c(NC(=O)c2ccc(Br)o2)n(-c2ccccc2)c2nc3ccccc3nc12`, the response slope is 0.00921.
With `Cc1ccc(-c2nn(-c3ccccc3)cc2/C=C(\C#N)c2cccc(C#N)c2)o1` the figure was 0.0107.
With `S=c1nc(C2CC2)[nH]c2ccccc12` the figure was -0.00904 (inactive).
Under `O=C(Nc1nc(-c2ccc(S(=O)(=O)N3CCCCCC3)cc2)cs1)c1cccs1` stands 0.0142; under `O=c1oc2c3c4c(cc2c(C(F)(F)F)c1CCN1CCOCC1)CCCN4CCC3`, 0.0204.
With `C/C(CC1(O)C(=O)N(Cc2ccccc2)c2ccccc21)=N\O` (stereo not given), the response slope is 0.00834.
As to `Fc1cccc2sc(Nc3nnc(-c4ccco4)o3)nc12`, the response slope was 0.0206.
With `Cc1nn(-c2ccc(Cl)cc2)c2sc(C(=O)N3CCN(c4ccccn4)CC3)cc12`, the response slope is 0.00468 (inactive).
With `COc1cc(OC)cc(-c2nnc(Nc3nc4c(F)cccc4s3)o2)c1` the figure was 0.0119; with `CCc1cccc(NC(=O)Cn2cc3c(n2)CCCC3)c1`, 0.00695 (inactive).
With `CN(C)c1ccc(/C=C/C(O)=C2/C(=O)N(C)C3(C)CC2c2ccccc2O3)cc1` (stereo not given) the figure was 0.00464 (inactive); with `Cc1c2ccncc2c(C)c2c1[nH]c1ccccc12`, 0.0125; with `Cc1ccccc1-n1nc(C)c2cc(C(=O)NCc3cccnc3)sc21`, 0.00964.
With `O=C(O)c1cc(O)c2c(c1)C(=O)c1cccc(O)c1C2=O` the figure was 0.00514 (inactive); with `CCCCN(CCCC)c1nc2ccccc2nc1C(C#N)C(=O)NCCCOC` (stereo not given), 0.00562 (inactive).
Regarding `CCOC(=O)c1cnn2c1[nH]c(=O)c1ccccc12`, the response slope was 0.00865.
Under `CCN(CC)c1ccc2cc(-c3nc4ccccc4[nH]3)c(=O)oc2c1` stands 0.0191.
With `CCOC(=O)c1cc(-c2nnc(-c3ccc(Oc4ccccc4)cc3)o2)c(C)nc1C` the figure was 0.0113.
With `Clc1ccccc1OCCCCn1ccnc1` the figure was 0.00392 (inactive); with `CCOC(=O)CC(=O)CSc1nc(-c2cccnc2)ccc1C#N`, 0.00405 (inactive).
Consider `CC(=O)c1c(C)c2c(n1CCN(C)C)CCCC2`, for which the response slope was 0.00747.
`COc1cc(/C=C/C(=O)CC(=O)/C=C/c2ccc(O)c(OC)c2)ccc1O`: the response slope was 0.00973.
As to `O=C(Nc1nc(=O)c2ccccc2s1)c1ccccc1`, the response slope was 0.00981.
With `O=C(Nc1nc(-c2ccc(S(=O)(=O)N3CCCC3)cc2)cs1)C1COc2ccccc2O1` (stereo not given) the figure was 0.00604 (inactive).
Consider `Cc1ccc(S(=O)(=O)/C(C#N)=C/c2c(N3CCN(C)CC3)nc3c(C)cccn3c2=O)cc1`, for which the response slope is 0.00236 (inactive).
With `COc1ccc(-c2noc(CSc3nc4ccccc4c(=O)n3-c3ccccc3)n2)cc1OC` the figure was 0.00773; with `CCCCCCc1cc2cc(-c3nnc(-c4ccccc4O)o3)c(=O)oc2cc1O`, 0.0548; with `CC(=O)OC(C)C[N+](C)(C)C` (stereo not given), 0.00597 (inactive).
Under `C[C@H]1OC[C@@H](C[N+](C)(C)C)O1` stands 0.0167; under `CCN(CC)C(=O)c1sc2nc(-c3cccs3)cc(-c3cccs3)c2c1N`, -0.000749 (inactive); under `Cc1ccc(SCc2c(C#N)c3ccccc3n2C)cc1`, 0.00835.
Consider `CCOc1ccccc1OCCCCN1CCCC1`, for which the response slope is 0.0043 (inactive).
With `CCn1c(SC(C)C(=O)O)nc2sc3c(c2c1=O)CCC3` (stereo not given) the figure was 0.0132; with `Cc1ccc(Cl)cc1N1CCN(C(=O)CN2C(=O)c3cccc4cccc2c34)CC1`, 0.00517 (inactive); with `Cc1csc(NC(=O)c2sc3nc(-c4cccs4)ccc3c2N)n1`, 0.00327 (inactive).
With `Cc1cccc2sc(NC(=O)Cn3cccc3)nc12` the figure was 0.0102; with `CCOC(=O)C1=C[C@]2(CC)CCCN3CCc4c(n1c1ccccc41)[C@@H]32`, 0.00841.
